This is an account of results in patent US10981932B2, “Macrocyclic indole derivatives” (Bayer Aktiengesellschaft, priority 2016, dated 2021).

Several values for one entry are separate records, joined by “and”; a condition that tells them apart may be missing. Equal entries are not always repeated. Structures can show the parent of a compound that is named as a salt. Where two headings read alike, the source gives them in different places.

For data set [1] the following is noted: rcm bond, Grubbs 2nd generation catalyst, dichloromethane, 25.0 °C.
Another data set deals with MCL-1 (Homo sapiens, UniProt Q07820). The data set is described as follows: Protein-protein interaction assay MCL-1/Noxa BH3 peptide (MCL-1 assay), TR-FRET. It counts as binding. Conditions: MBP-MCL-1 / Noxa BH3-derived peptide, median. The essentials:
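IC50 came from a 4-parameter fit of the normalized 665/620 nm TR-FRET ratio (anti-MBP Eu-cryptate/streptavidin-XL665). Compounds (0.1 nM–20 μM, duplicates) were preincubated 10 min at 22 °C with 1 nM MBP-MCL-1 in pH 7 Tris/NaCl/KF buffer, then read after 1 h at 22 °C plus overnight at 4 °C.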
In general terms: In TR-FRET formats the signal depends on donor and acceptor labels being close together.

Data set [2] has as its system SUDHL5. The data set is described as follows: Induction of caspase-3/7 activity (Caspase-Glo 3/7), SUDHL5. The format is cell-based. Conditions: caspase-3/7 induction, SUDHL5 cells, 3 h treatment; median. The essentials: (§1)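 DLBCL lines SUDHL5 and SUDHL10 treated with compounds for 3 h at 37 °C; caspase-3/7 activity read by Caspase-Glo 3/7 luminescence. Medium-only background subtracted; EC50 fitted with bottom fixed at 1 and top fixed at the reference compound's maximal induction.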

The subject of data set [3] is SUDHL10. The data set is described as follows: Induction of caspase-3/7 activity (Caspase-Glo 3/7), SUDHL10. The format is cell-based. Conditions: caspase-3/7 induction, SUDHL10 cells, 3 h treatment; median. The essentials:
as §1

Data set [4] relates to SUDHL5. The data set is described as follows: Anti-proliferative effect (CellTiter-Glo, 72 h), SUDHL5. Conditions: SUDHL5 cells, antiproliferation, median, read-out: Antiproli SUDHL5 [M] (median). The format is cell-based. Summed up: (§2)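 Cells plated and incubated with compounds for 72 h at 37 °C, with a parallel day 0 reference plate for time-zero signal. Viability read by CellTiter-Glo luminescence after 10 min, measured identically on the day 0 and 72 h plates.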
(In ATP-based viability assays light output follows the ATP content of the culture.)

The next data set deals with A2780. The data set is described as follows: Anti-proliferative effect (CellTiter-Glo, 72 h), A2780. The format is cell-based. Conditions: A2780 cells, median, read-out: IC50 antiproliferation assay A2780 [M] (median). The essentials: as §2
A further data set has as its system MV-4-11. The data set is described as follows: Anti-proliferative effect (CellTiter-Glo, 72 h), MV-4-11. The format is cell-based. Conditions: MV-4-11 cells, median, read-out: IC50 antiproliferation assay MV-4-11 [M] (median). The essentials: as §2
The subject of the next data set is SK-MEL-2. The data set is described as follows: Anti-proliferative effect (CellTiter-Glo, 72 h), SK-MEL-2. The format is cell-based. Conditions: Homo sapiens, SK-MEL-2 cells, median, read-out: IC50 antiproliferation assay SK-MEL-2 [M] (median). As for the experimental part:
Assessment of the Anti-Proliferative Effect of Compounds in Different Cell Lines
(§3) The impact of compounds on the proliferation of different cell lines was assessed using the CellTiter-Glo® Luminescent Cell Viability reagent from Promega (G7573). Of note, SUDHL10 and SUDHL5 (DLBCL), NCI-H929 (Multiple Myeloma), A2780 (ovarian carcinoma) as well as MV-4-11(AML) cells are sensitive to MCL-1 inhibition.
(§4) In parallel, cells were plated in a reference (day 0) plate for time zero determination.
(§5) Rim wells were excluded. The cells were incubated for 72 h hours in a humidified incubator at 37° C. The day 0 plate was measured by adding 30 μl/well of CTG solution (CellTiter-Glo® Luminescent Cell Viability reagent, Promega G7573) to time zero wells in the reference plate followed by a 10 minutes incubation and luminescence reading at 0.1 ms, using the PHERAstar FS microplate reader (BMG Labtech).
(§6) After 72 h incubation, the treated plates were measured in the same way as the day 0 plate mentioned above.

The next data set has as its system NCI-H1703. The data set is described as follows: Anti-proliferative effect (CellTiter-Glo, 72 h), NCI-H1703. It counts as cell-based. Conditions: Homo sapiens, NCI-H1703 cells, median, read-out: IC50 antiproliferation assay NCI-H1703 [M] (median). Here is the method:
as §3, §4, §5, §6

Data set [5] concerns SUDHL5. The data set is described as follows: Induction of cytotoxicity (CellTiter-Glo, 5 h), SUDHL5. Conditions: read-out: Cytotox SUDHL5 [M] (median), SUDHL5 cells, cytotoxicity induction, CellTiter-Glo, median.
The subject of data set [6] is SUDHL10. The data set is described as follows: Induction of cytotoxicity (CellTiter-Glo, 5 h), SUDHL10. Conditions: read-out: Cytotox SUDHL10 [M] (median), SUDHL10 cells, cytotoxicity induction, CellTiter-Glo, median.
Data set [7] concerns SUDHL10. The data set is described as follows: Anti-proliferative effect (CellTiter-Glo, 72 h), SUDHL10. It counts as cell-based. Conditions: SUDHL10 cells, antiproliferation, 72 h incubation, median, read-out: Antiproli SUDHL10 [M] (median). The essentials: as §2
The test system of the next data set is OPM2. The data set is described as follows: Anti-proliferative effect (CellTiter-Glo, 72 h), OPM2. It counts as cell-based. Conditions: OPM2 cells, median, read-out: IC50 antiproliferation assay OPM2 [M] (median). The essentials:
as §2

Data set [8] deals with SUDHL5.

Chain of MCL-1 (Q07820 whole entry): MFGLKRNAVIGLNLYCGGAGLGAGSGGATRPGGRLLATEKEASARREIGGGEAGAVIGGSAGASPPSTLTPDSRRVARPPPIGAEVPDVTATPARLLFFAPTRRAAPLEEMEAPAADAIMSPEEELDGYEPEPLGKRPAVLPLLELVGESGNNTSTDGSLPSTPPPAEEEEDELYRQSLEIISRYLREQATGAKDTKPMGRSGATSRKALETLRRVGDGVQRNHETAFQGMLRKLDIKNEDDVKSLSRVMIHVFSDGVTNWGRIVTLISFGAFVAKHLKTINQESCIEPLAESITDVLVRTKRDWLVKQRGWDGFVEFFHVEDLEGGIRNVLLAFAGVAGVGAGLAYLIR

Turning to `CCOC(=O)c1c(CCCOc2cccc3ccccc23)c2cccc3c2n1CC=CCOCc1c-3c(COc2ccc(C3(OC)CCOCC3)cc2)nn1C` (mixture of isomers), in data set [1] (from C=CCOCc1c(-c2cccc3c(CCCOc4cccc5ccccc45)c(C(=O)OCC)n(CC=C)c23)c(COc2ccc(C3(OC)CCOCC3)cc2)nn1C, 78.4 mM, 72.0 h), the ring closure, yield of all isomers is 39.1%.

With `CCOC(=O)c1c(CCCOc2cccc3ccccc23)c2cccc3c2n1CC=CCOCc1c-3c(COc2ccc(N3CCOCC3)cc2)nn1C` (mixture of isomers), the ring closure, yield of all isomers in [1] (from C=CCOCc1c(-c2cccc3c(CCCOc4cccc5ccccc45)c(C(=O)OCC)n(CC=C)c23)c(COc2ccc(N3CCOCC3)cc2)nn1C, 39.1 mM, 44.0 h) was found to be 53.3%.

Turning to `CCOC(=O)c1c(CCCOc2cccc3ccccc23)c2cccc3c2n1CC=CCOCc1c-3c(COc2ccccc2)nn1C` (mixture of isomers), the ring closure, yield of all isomers in data set [1] (from C=CCOCc1c(-c2cccc3c(CCCOc4cccc5ccccc45)c(C(=O)OCC)n(CC=C)c23)c(COc2ccccc2)nn1C, 78.3 mM, 24.0 h) came out at 56.9%.

In the case of `CCOC(=O)c1c(CCCOc2cccc3ccccc23)c2cccc3c2n1CC=CCOCc1c-3cnn1C` (mixture of isomers), the ring closure, yield of all isomers in data set [1] (from C=CCOCc1c(-c2cccc3c(CCCOc4cccc5ccccc45)c(C(=O)OCC)n(CC=C)c23)cnn1C, 78.2 mM, 24.0 h) is 42.1%.

`CCOC(=O)c1c(CCCOc2cccc3ccccc23)c2cccc3c2n1CC=CCOCc1nn(C)c(C)c1-3` (mixture of isomers) registered a ring closure, yield of all isomers in data set [1] (from C=CCOCc1nn(C)c(C)c1-c1cccc2c(CCCOc3cccc4ccccc34)c(C(=O)OCC)n(CC=C)c12, 77.8 mM, 16.0 h) of 15%.

As usually defined, the EC50 is the concentration that produces a half-maximal response. A higher EC50 goes with a less potent agent. In the case of `CCc1nn(C)c2c1-c1c(C)ccc3c(CCCOc4cccc5cc(F)ccc45)c(C(=O)O)n(c13)CCCCOC2` (single isomer, unassigned) [Example 267, (+)-3-ethyl-7-{3-[(6-fluoronaphthalen-1-yl)oxy]propyl}-1,4-dimethyl-1,10,11,12,13,15-hexahydropyrazolo[4′,3′:9,10][1,6]oxazacycloundecino[8,7,6-hi]indole-8-carboxylic Acid], the IC50 against MCL-1 was found to be 0.00037 µM; with SUDHL5 [4] (72 h incubation), 1.89e-06 M; with A2780 (Homo sapiens, A2780, 72 h), 2.15e-05 M; in the data set on MV-4-11 (Homo sapiens, MV4-11, 72 h) it was 7.02e-06 M; with SK-MEL-2, 2e-05 M; with NCI-H1703, 1.36e-05 M. For the same molecule, the IC50 was determined as 1.11e-06 M in the data set with SUDHL5 [5] (5 h incubation) and 3.66e-06 M with SUDHL10 [6] (5 h incubation). In addition, the EC50 with SUDHL5 [2] was determined as 1.14 µM; with SUDHL10 [3] it was 4.6 µM.

Turning to `CCc1c2c(nn1C)COCCCCn1c(C(=O)O)c(CCCOc3cccc4cc(F)ccc34)c3cccc-2c31` (single isomer, unassigned) [Example 282, (+)-3-ethyl-7-{3-[(6-fluoronaphthalen-1-yl)oxy]propyl}-2-methyl-2,10,11,12,13,15-hexahydropyrazolo[4′,3′:9,10][1,6]oxazacycloundecino[8,7,6-hi]indole-8-carboxylic acid-N-ethylethanamine Salt], the IC50 against MCL-1 turned out to be 0.00109 µM; with SUDHL5 [4] (72 h incubation) it was 5.78e-07 M; in the data set with A2780 (Homo sapiens, A2780, 72 h), 8.66e-06 M; in the data set with MV-4-11, 3.69e-06 M; with SK-MEL-2, 1.25e-05 M; in the data set with NCI-H1703 it was 4.85e-06 M. In addition, the results for the IC50 in the data set with SUDHL5 [5] (5 h incubation) and with SUDHL10 [6] (5 h incubation) were 6.16e-07 M and 7.8e-07 M, respectively. Further, the EC50 with SUDHL5 [2] amounted to 0.385 µM; in the data set on SUDHL10 [3], 0.906 µM.

Turning to `Cc1c2c(nn1CCN1CCOCC1)COCCCCn1c(C(=O)O)c(CCCOc3cccc4cc(F)ccc34)c3cccc-2c31` (single isomer, unassigned) [Example 285, (+)-7-{3-[(6-fluoronaphthalen-1-yl)oxy]propyl}-3-methyl-2-[2-(morpholin-4-yl)ethyl]-2,10,11,12,13,15-hexahydropyrazolo[4′,3′:9,10][1,6]oxazacycloundecino[8,7,6-hi]indole-8-carboxylic acid-N-ethylethanamine Salt], the IC50 was determined as 0.000782 µM on MCL-1; 9.39e-07 M in the data set on SUDHL5 [4] (72 h incubation); 1.22e-05 M in the data set on A2780 (Homo sapiens, A2780, 72 h); 3.61e-06 M with MV-4-11; 1.09e-05 M in the data set with SK-MEL-2; 6.98e-06 M in the data set on NCI-H1703. The figures for the IC50 with SUDHL5 [5] (5 h incubation) and in the data set on SUDHL10 [6] (5 h incubation) were 7.5e-07 M and 2.81e-06 M, respectively. Further, the figures for the EC50 with SUDHL5 [2] and in the data set with SUDHL10 [3] were 0.646 µM and 1.41 µM, respectively.

As for `CCc1nn(C)c2c1-c1cccc3c(CCCOc4cccc5cc(F)ccc45)c(C(=O)O)n(c13)CCCCOC2` (single isomer, unassigned) [Example 288, (+)-3-ethyl-7-{3-[(6-fluoronaphthalen-1-yl)oxy]propyl}-1-methyl-1,10,11,12,13,15-hexahydropyrazolo[4′,3′:9,10][1,6]oxazacycloundecino[8,7,6-hi]indole-8-carboxylic Acid], the IC50 on MCL-1 was 0.00149 µM; with SUDHL5 [4] (72 h), 1.54e-06 M; in the data set with A2780 (Homo sapiens, A2780, 72 h) it was greater than 3.3e-05 M; in the data set on MV-4-11 (Homo sapiens, MV4-11, 72 h), 9.86e-06 M; in the data set on SK-MEL-2 it was greater than 3.3e-05 M; in the data set on NCI-H1703 it was 1.76e-05 M. Also, the IC50 in the data set on SUDHL5 [5] (5 h) is 1.68e-06 M; in the data set with SUDHL10 [6] (5 h) it was 6.54e-06 M. Also, the 50% effective concentration (EC50) in the data set with SUDHL5 [2] was 1.57 µM; in the data set with SUDHL10 [3], 5.85 µM.

Regarding `CCc1nn(CCN2CCOCC2)c2c1-c1cccc3c(CCCOc4cccc5ccccc45)c(C(=O)O)n(c13)CCCCOC2` (single isomer, unassigned; enantiomer 1) [Example 199, 3-ethyl-1-[2-(morpholin-4-yl)ethyl]-7-[3-(naphthalen-1-yloxy)propyl]-1,10,11,12,13,15-hexahydropyrazolo[4′,3:9,10][1,6]oxazacycloundecino[8,76-hi]indole-8-carboxylic Acid (Enantiomer 1)], the IC50 is 0.00126 µM at MCL-1; 1.65e-06 M in the data set with SUDHL5 [4] (72 h incubation); 1.13e-06 M in the data set on SUDHL10 [7]; 1.57e-05 M in the data set with A2780 (Homo sapiens, A2780, 72 h); 7.51e-06 M in the data set on MV-4-11 (Homo sapiens, MV4-11, 72 h); 2.9e-05 M in the data set on SK-MEL-2. Further, the IC50 worked out at 1.46e-05 M with NCI-H1703, 9.25e-07 M with SUDHL5 [5] (5 h incubation) and 2.92e-06 M in the data set on SUDHL10 [6] (5 h incubation). In addition, the half-maximal effective concentration (EC50) in the data set with SUDHL5 [2] amounted to 0.899 µM; in the data set on SUDHL10 [3] it was 3.46 µM.

As for `Cn1nc(CN2CCOCC2)c2c1COCCCn1c(C(=O)O)c(CCCOc3cccc4ccccc34)c3cccc-2c31` (single isomer, unassigned; enantiomer 2) [Example 140, 9-methyl-11-(morpholin-4-ylmethy)-1-[3-(naphthalen-1-yloxy)propyl]-5,6,8,9-tetrahydro-4H-pyrazolo[4′,3′:8,9][1,5]oxazecino[7,6,5-hi]indole-2-carboxylic Acid (Enantiomer 2)], the IC50 was 0.0114 µM against MCL-1; 1.17e-05 M with SUDHL5 [4] (72 h incubation); 1.79e-05 M in the data set on SUDHL10 [7]; greater than 3.3e-05 M in the data set on OPM2; greater than 3.3e-05 M with A2780; 2.27e-05 M in the data set on MV-4-11. Besides, the IC50 in the data set with SUDHL5 [8] was found to be 16.7 µM. Also, the concentration for a half-maximal effect (EC50) on SUDHL5 [2] is 14.9 µM; on SUDHL10 [3], 20.3 µM and > 33 µM.
